Legend:
Assay type in all cases: biochemical
plasma [1] = test: PT clotting time, RPR spiked in plasma
Description: (§1) • 2. Follow the reaction kinetically for 5 min. • C) Calculation: Measure the initial velocity, however, ignore the lag phase. In general measure the initial rate of the linear portion of the time course. Use initial rates of clinical samples at different time points and then compared to the pre-dosing control to calculate % inhibition. Various concentrations of the compound RPR spiked in plasma were assayed for PT, APTT and PVVT prolongation. […] RVV-X induced clotting time (RVVT) assay could be conveniently used for monitoring the effect of RPR on patient's endogenous plasma FXa.

plasma [2] = test: APTT clotting time, RPR spiked in plasma
Description: as §1

endogenous plasma FXa = target: T1, endogenous plasma FXa (Homo sapiens, UniProt P00742); test: Russell's viper venom-induced clotting time (RVVT), RPR spiked in plasma
T1 construct: monitoring the effect of RPR on patient's endogenous plasma FXa; from tissue
Description: Dose-dependent clotting time prolongation curve from the compound methyl-3-(4′-N-oxopyridylphenoyl)-3-methyl-2-(m-amidinobenzyl)-propionate (hereinafter “RPR”) or the trifluoroacetate salt of RPR: • 1. Add 0.1 ml FXa buffer, 0.1 ml serial dilution of RPR, 0.1 ml normal pooled or patients plasma to the cuvette then 0.1 ml of RVV-Ca (MLA-800 dotter add this reagent automatically). • 2. Measure clotting time. • 3. Construct the dose-dependent clotting time prolongation curve. • 4. Calculate concentration for 2×RVVT
as §1

T1 sequence (P00742 235-488 limits assumed): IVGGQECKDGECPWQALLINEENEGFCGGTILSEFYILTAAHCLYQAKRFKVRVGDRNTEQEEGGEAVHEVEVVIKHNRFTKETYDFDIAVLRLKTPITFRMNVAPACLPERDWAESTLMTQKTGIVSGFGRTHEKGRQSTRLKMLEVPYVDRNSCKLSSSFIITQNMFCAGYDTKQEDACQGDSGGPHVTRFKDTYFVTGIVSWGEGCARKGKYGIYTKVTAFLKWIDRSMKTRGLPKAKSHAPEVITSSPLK
T1 sequence (P00742 41-179 partner limits assumed): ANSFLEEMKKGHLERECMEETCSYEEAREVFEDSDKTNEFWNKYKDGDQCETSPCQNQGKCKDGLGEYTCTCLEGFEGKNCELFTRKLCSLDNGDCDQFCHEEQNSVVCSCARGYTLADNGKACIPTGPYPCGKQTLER

COC(=O)C(Cc1cccc(C(=N)N)c1)C(C)C(=O)c1ccc(-c2cc[n+]([O-])cc2)cc1 (stereo not drawn) [RPR, methyl-3-(4′-N-oxopyridylphenoyl)-3-methyl-2-(m-amidinobenzyl)-propionate]
fold-change of PT (plasma [1]; RPR 50 μg/ml spiked in plasma): 1.08 fold | fold-change of PT (plasma [1]; RPR 166 μg/ml spiked in plasma): 1.16 fold | fold-change of PT (plasma [1]; RPR 322 μg/ml spiked in plasma): 1.25 fold | fold-change of APTT (plasma [2]; RPR 50 μg/ml spiked in plasma): 1.08 fold | fold-change of APTT (plasma [2]; RPR 166 μg/ml spiked in plasma): 1.41 fold | fold-change of APTT (plasma [2]; RPR 322 μg/ml spiked in plasma): 1.5 fold | fold-change of RVVT (endogenous plasma FXa; RPR 50 μg/ml spiked in plasma): 1.33 fold | fold-change of RVVT (endogenous plasma FXa; RPR 166 μg/ml spiked in plasma): 2.66 fold | fold-change of RVVT (endogenous plasma FXa; RPR 322 μg/ml spiked in plasma): 4.41 fold

Source: patent US7220553B2, “Use of Russell's viper venom-induced plasma factor Xa activity to monitor the activity of factor Xa inhibitors” (Sanofi-Aventis Deutschland GmbH, priority 1999, dated 2007)
